Experimental data as given in US20230127944A1, “BROAD-SPECTRUM CARBAPENEMS” (priority 2019, published 2023).
≈ marks a conversion by molar mass, not a printed value.

Key:
Assay type in all cases: cell-based
[1] = test system: S. aureus ATCC 33591 (methicillin-resistant); experiment: broth microdilution MIC assay, S. aureus 33591; details: Staphylococcus aureus, ATCC33591; S. aureus 33591, methicillin-resistant; read-out: MIC, S. aureus 33591
How it was run: (§1)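 Growth inhibition was measured by CLSI-based broth microdilution. Log-phase cultures in Mueller-Hinton broth with divalent cations were seeded at 5×10^5 CFU/mL into 2-fold serial compound dilutions and incubated 16-20 hours at 37° C before the MIC was scored by eye.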

[2] = test system: S. aureus USA 300; experiment: broth microdilution MIC assay, S. aureus USA300; details: Staphylococcus aureus; S. aureus USA300 (MRSA); read-out: MIC, S. aureus USA300
How it was run: as §1

[3] = test system: S. aureus USA 600; experiment: broth microdilution MIC assay, S. aureus USA600; details: Staphylococcus aureus; S. aureus USA600 (MRSA); read-out: MIC, S. aureus USA600
How it was run: as §1

[4] = test system: E. coli ATCC 25922 (wild-type/QC strain); experiment: broth microdilution MIC assay, E. coli 25922; details: Escherichia coli, ATCC25922; read-out: MIC, E. coli 25922
How it was run: as §1

[5] = test system: P. aeruginosa ATCC 27853 (wild-type/QC strain); experiment: broth microdilution MIC assay, P. aeruginosa 27853; details: Pseudomonas aeruginosa, ATCC27853; read-out: MIC, P. aeruginosa 27853
How it was run: as §1

[6] = test system: P. aeruginosa ΔmexAB-OprM (an efflux pump knockout); experiment: broth microdilution MIC assay, P. aeruginosa ΔmexAB-OprM; details: Pseudomonas aeruginosa, read-out: MIC, P. aeruginosa ΔmexAB-OprM
How it was run: as §1

[7] = test system: P. aeruginosa Paeβ-17; experiment: broth microdilution MIC assay, P. aeruginosa Paeβ-17; details: Pseudomonas aeruginosa, read-out: MIC, P. aeruginosa Paeβ-17
How it was run: as §1

[8] = test system: P. aeruginosa clinical isolates; experiment: expanded MIC profiling, P. aeruginosa clinical isolates; details: Pseudomonas aeruginosa
Method: (§2) To evaluate the activity of selected example compounds against clinical isolates of target species, standard cell-based broth microdilution MIC assays were employed. A panel of 20 clinical isolates of P. aeruginosa and 20 clinical isolates of Methicillin Resistant S. aureus (MRSA) from Lankenau Medical Center (Wynnewood, Pa.) were used. In the set of P. aeruginosa isolates, the compounds were also tested in combination with a β-lactamase inhibitor (taniborbactam), to evaluate the potential benefit of inhibiting β-lactamase enzymes. The assay was conducted in Cation Adjusted Mueller Hinton Broth (CAMHB, BD #212322, BD Diagnostic Systems, Sparks, Md.). Bacteria strains were grown for 3-5 hours in CAMHB. Compounds were added to a microtiter plate in 2-fold serial dilutions in CAMHB. For plates receiving β-lactamase inhibitor, taniborbactam was added to obtain a final fixed concentration of 4 μg/mL. Once the test articles were added, the plates were inoculated according to CLSI broth microdilution method. After inoculation, the plates were incubated for 16-20 hours at 37° C. then the Minimal Inhibitory Concentration (MIC) of the test compound is determined visually. Values for concentration required to inhibit growth of […] (MIC50) and 90% (MIC90) of isolates were determined.

[9] = test system: Methicillin Resistant S. aureus (MRSA) clinical isolates; experiment: expanded MIC profiling, MRSA clinical isolates; details: Staphylococcus aureus
Method: as §2

[10] = panel of 20 P. aeruginosa clinical isolates
[11] = panel of S. aureus (MRSA) isolates of Table 5

Question: Which results are given for `C[C@@H](O)[C@H]1C(=O)N2C(C(=O)O)=C(S[C@@H]3CCN(C[C@H]4CC[C@H](NC(=N)N)CC4)C3)[C@H](C)[C@H]12` [Example 28, (4R,5S,6S)-3-(((R)-1-(((1R,4R)-4-guanidinocyclohexyl)methyl)pyrrolidin-3-yl)thio)-6-((R)-1-hydroxyethyl)-4-methyl-7-oxo-1-azabicyclo[3.2.0]hept-2-ene-2-carboxylic acid]?
Answer: MIC [1]: 1 to 4 µg/mL (≈ 2.15 to 8.59 µM); MIC [2]: 1 to 4 µg/mL (≈ 2.15 to 8.59 µM); MIC [3]: < 1 µg/mL; MIC [4]: < 1 µg/mL; MIC [5]: 1 to 4 µg/mL (≈ 2.15 to 8.59 µM); MIC [6]: < 1 µg/mL; MIC [7]: 8 to 32 µg/mL (≈ 17.2 to 68.7 µM); MIC ([8]; P. aeruginosa clinical isolate Lankenau 11): 2 µg/mL; MIC ([8]; P. aeruginosa clinical isolate Lankenau 12): 0.5 µg/mL; MIC ([8]; P. aeruginosa clinical isolate Lankenau 13): 0.5 µg/mL; MIC ([8]; P. aeruginosa clinical isolate Lankenau 14): 1 µg/mL; MIC ([8]; P. aeruginosa clinical isolate Lankenau 15): 1 µg/mL; MIC ([8]; P. aeruginosa clinical isolate Lankenau 16): 1 µg/mL; MIC ([8]; P. aeruginosa clinical isolate Lankenau 17): 1 µg/mL; MIC ([8]; P. aeruginosa clinical isolate Lankenau 18): 1 µg/mL; MIC ([8]; P. aeruginosa clinical isolate Lankenau 19): 1 µg/mL; MIC ([8]; P. aeruginosa clinical isolate Lankenau 20): 1 µg/mL; MIC ([8]; P. aeruginosa clinical isolate Lankenau 21): 1 µg/mL; MIC ([8]; P. aeruginosa clinical isolate Lankenau 22): 1 µg/mL; MIC ([8]; P. aeruginosa clinical isolate Lankenau 23): 2 µg/mL; MIC ([8]; P. aeruginosa clinical isolate Lankenau 24): 2 µg/mL; MIC ([8]; P. aeruginosa clinical isolate Lankenau 25): 2 µg/mL; MIC ([8]; P. aeruginosa clinical isolate Lankenau 26): 2 µg/mL; MIC ([8]; P. aeruginosa clinical isolate Lankenau 27): 2 µg/mL; MIC ([8]; P. aeruginosa clinical isolate Lankenau 28): 8 µg/mL; MIC ([8]; P. aeruginosa clinical isolate Lankenau 29): 16 µg/mL; MIC ([8]; P. aeruginosa clinical isolate Lankenau 30): 32 µg/mL; MIC50 [8, 10]: 1 µg/mL; MIC90 [8, 10]: 8 µg/mL; MIC ([9]; ATCC 33591 / MRSA, S. aureus ATCC-33591): 2 µg/mL; MIC ([9]; MRSA, S. aureus clinical isolate LH-SA3): 0.5 µg/mL; MIC ([9]; MRSA, S. aureus clinical isolate LH-SA9): 0.5 µg/mL; MIC ([9]; MRSA, S. aureus clinical isolate LH-SA23): 0.5 µg/mL; MIC ([9]; MRSA, S. aureus clinical isolate LH-SA24): 0.5 µg/mL; MIC ([9]; MRSA, S. aureus clinical isolate LH-SA26): 0.5 µg/mL; MIC ([9]; MRSA, S. aureus clinical isolate LH-SA29): 2 µg/mL; MIC ([9]; MRSA, S. aureus clinical isolate LH-SA33): 2 µg/mL; MIC ([9]; MRSA, S. aureus clinical isolate LH-SA34): 4 µg/mL; MIC ([9]; MRSA, S. aureus clinical isolate LH-SA37): 0.25 µg/mL; MIC ([9]; MRSA, S. aureus clinical isolate LH-SA38): 4 µg/mL; MIC ([9]; MRSA, S. aureus clinical isolate LH-SA39): 2 µg/mL; MIC ([9]; MRSA, S. aureus clinical isolate LH-SA40): 2 µg/mL; MIC ([9]; MRSA, S. aureus clinical isolate LH-SA41): 2 µg/mL; MIC ([9]; MRSA, S. aureus clinical isolate LH-SA42): 0.5 µg/mL; MIC ([9]; MRSA, S. aureus clinical isolate LH-SA44): 4 µg/mL; MIC ([9]; MRSA, S. aureus clinical isolate LH-SA45): 16 µg/mL; MIC ([9]; MRSA, S. aureus clinical isolate LH-SA48): 0.5 µg/mL; MIC ([9]; MRSA, S. aureus clinical isolate LH-SA49): 0.5 µg/mL; MIC ([9]; MRSA, S. aureus clinical isolate LH-SA50): 0.5 µg/mL; MIC50 [9, 11]: 0.5 µg/mL; MIC90 [9, 11]: 4 µg/mL
